Source: patent US12048678B2, “Compounds for treating myelin related disorders” (Case Western Reserve University, priority 2018, dated 2024)
“Also recorded” adds a separate entry of the source.

How the values were obtained:
M1 muscarinic receptor = target: T1, M1 muscarinic receptor (Homo sapiens, UniProt P11229); experiment: Muscarinic receptor antagonism assay (GeneBLAzer M1-NFAT-bla CHO-K1 cells); format: cell-based; conditions: Compound 1 at 1 μM, TASIN-1 100 nM; concentration maximally effective for oligodendrocyte formation
T1 sequence (P11229 1-460): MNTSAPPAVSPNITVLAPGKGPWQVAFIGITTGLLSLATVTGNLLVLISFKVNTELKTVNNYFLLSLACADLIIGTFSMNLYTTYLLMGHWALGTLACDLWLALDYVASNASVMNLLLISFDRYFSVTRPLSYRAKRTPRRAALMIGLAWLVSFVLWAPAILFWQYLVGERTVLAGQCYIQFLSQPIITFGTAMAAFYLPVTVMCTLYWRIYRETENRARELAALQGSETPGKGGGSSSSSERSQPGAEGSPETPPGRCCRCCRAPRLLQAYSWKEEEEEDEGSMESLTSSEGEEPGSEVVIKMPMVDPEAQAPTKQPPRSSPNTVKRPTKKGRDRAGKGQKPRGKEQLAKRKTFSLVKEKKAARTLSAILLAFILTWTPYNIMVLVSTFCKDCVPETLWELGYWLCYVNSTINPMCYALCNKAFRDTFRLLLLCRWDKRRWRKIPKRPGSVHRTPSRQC
Protocol: GeneBLAzer M1-NFAT-bla CHO-K1 cells (or M3- or M5-NFAT-bla CHO-K1 cells)(ThermoFisher) were thawed into Assay Media (DMEM, 10% dialyzed FBS, 25 mM HEPES pH 7.3, 0.1 mM NEAA). 10,000 cells/well were added to a 384-well TC treated assay plate and incubated 16-24 h at 37° C. 4 μl of a 10× stock of antimuscarinic molecules was added to the plate and incubated 30 min. 4 μl of 10× control agonist Carbachol at the pre-determined EC80 concentration was added to wells containing antimuscarinic molecules. The plate was incubated 5 h and 8 μl of 1 μM Substrate+Solution D Loading Solution was added to each well and the plate was incubated 2 h at room temperature before reading on a fluorescence plate reader.

[1] = tested on: oligodendrocyte progenitor cells (OPCs), OPC-5; experiment: Differentiation of OPCs to MBP+ oligodendrocytes (in vitro phenotypic screening, high-content imaging); format: cell-based, mouse
Protocol: To rigorously assess effects of small molecule and genetic treatments on OPCs, all treatments were assayed in two batches of epiblast stem cell-derived OPCs, and key results were confirmed using mouse primary OPCs. OPCs were generated from two separate EpiSC lines, EpiSC5 (giving rise to OPC-5 OPCs) and 12901 (giving rise to OPC-1 OPCs). EpiSC-derived OPCs were obtained using in vitro differentiation protocols and culture conditions described previously. To ensure uniformity throughout all in vitro screening experiments, EpiSC-derived OPCs were sorted to purity by fluorescence activated cell sorting at passage five with conjugated CD 140a-APC (eBioscience, 17-1401; 1:80) and NG2-AF488 (Millipore, AB5320A4; 1:100) antibodies. Sorted batches of OPCs were expanded and frozen down in aliquots. OPCs were thawed into growth conditions for one passage before use in further assays. Cultures were regularly tested and shown to be mycoplasma free.
EpiSC-derived OPCs were grown and expanded in poly-ornithine (PO) and laminin-coated flasks with growth medium (DMEM/F12 supplemented with N2-MAX (R&D Systems), B-27 (ThermoFisher), GlutaMax (Gibco), FGF2 ([…], R&D systems, 233-FB-025) and PDGF-AA ([…], R&D systems, 233-AA-050) before harvesting for plating. The cells were seeded onto poly-D-lysine 96-well CellCarrier or CellCarrierUltra plates (PerkinElmer) coated with laminin (Sigma, L2020; 15 μg/ml) using multi-channel pipet. For the experiment, 800,000 cells/mL stock in differentiation medium (DMEM/F12 supplemented with N2-MAX and B-27) was prepared and stored on ice for 2 h. Then, 40,000 cells were seeded per well in differentiation medium and allowed to attach for 30 min before addition of drug. For dose-response testing of all molecules except sterols, a 1000× compound stock in dimethyl sulphoxide (DMSO) was added to assay plates with 0.1 μL solid pin multi-blot replicators (V & P Scientific; VP 409), resulting in a final primary screening concentration of 1×. Cells were incubated under standard conditions (37° C., 5% CO2) for 3 days and fixed with 4% paraformaldehyde (PFA) in phosphate buffered saline (PBS) for 20 min. Fixed plates were washed with PBS (200 μL per well) twice, permeabilized with 0.1% Triton X-100 and blocked with 10% donkey serum (v/v) in PBS for 40 min. Then, cells were labelled with MBP antibodies (Abcam, ab7349; 1:200) for 16 h at 4° C. followed by detection with Alexa Fluor conjugated secondary antibodies (1:500) for 45 min. Nuclei were visualized by DAPI staining (Sigma; 1 μg/ml). During washing steps, PBS was added using a multi-channel pipet and aspiration was performed using Biotek EL406 washer dispenser (Biotek) equipped with a 96-well aspiration manifold.
Plates were imaged on the Operetta High Content Imaging and Analysis system (PerkinElmer) and a set of 6 fields captured from each well resulting in an average of 1200 cells being scored per well. Analysis (PerkinElmer Harmony and Columbus software) began by identifying intact nuclei stained by DAPI; that is, those traced nuclei that were larger than 300 μm2 in surface area. Each traced nucleus region was then expanded by 50% and cross-referenced with the […] (MBP) stain to identify oligodendrocyte nuclei, and from this the percentage of oligodendrocytes was calculated.

[2] = target: T2, estrogen receptor (T47D cells) (Homo sapiens, UniProt P03372); experiment: Estrogen-dependent cell proliferation assay; format: cell-based; conditions: Compound 1 at 1 μM, TASIN-1 100 nM
T2 construct: estrogen dependent growth of T47D cells; endogenous in cells; host or cells: T47D
T2 sequence (P03372 1-595): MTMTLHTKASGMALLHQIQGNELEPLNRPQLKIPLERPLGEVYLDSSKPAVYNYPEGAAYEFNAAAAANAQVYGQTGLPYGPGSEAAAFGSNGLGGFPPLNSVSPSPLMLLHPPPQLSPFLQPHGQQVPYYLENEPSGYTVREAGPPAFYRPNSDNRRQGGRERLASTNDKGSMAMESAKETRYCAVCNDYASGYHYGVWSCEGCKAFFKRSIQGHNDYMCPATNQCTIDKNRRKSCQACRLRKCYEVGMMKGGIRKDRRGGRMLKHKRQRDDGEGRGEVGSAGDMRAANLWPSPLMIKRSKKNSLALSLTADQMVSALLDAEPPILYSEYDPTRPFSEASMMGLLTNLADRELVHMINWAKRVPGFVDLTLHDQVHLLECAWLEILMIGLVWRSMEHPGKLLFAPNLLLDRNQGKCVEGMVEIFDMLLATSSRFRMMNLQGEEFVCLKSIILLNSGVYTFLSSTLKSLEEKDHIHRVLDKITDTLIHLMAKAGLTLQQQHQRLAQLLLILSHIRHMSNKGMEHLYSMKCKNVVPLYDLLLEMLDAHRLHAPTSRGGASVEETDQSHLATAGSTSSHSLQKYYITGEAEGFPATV
Protocol: Estrogen-dependent cell proliferation was measured as previously described with minor modifications. After growth in estrogen-free media (Phenol red-free RPMI supplemented with 10% charcoal stripped fetal bovine serum) for 5 days, cells were seeded at 2,500 cells/well into 96 well plates. The following day 3× drug containing media was added to triplicate wells and cells were allowed to grow for an additional 5 days at 37° C. in standard a 5% CO2 humidified incubator. Total DNA per well was measured using an adaptation of the method of Labarca and Paigen. At this time media was removed, cells were washed one time with 0.25×PBS and 100 μl of distilled water was added. […] After incubation at room temperature for 2 hours, plates were read in a SpectraMax i3 fluorescent plate reader (Molecular Devices, Sunnyvale, CA) with excitation at 360 nm and emission at 460 nm. All values were converted to microgram DNA per well using a standard curve derived from purified salmon testes DNA.

c1ccc(-c2ccc(CN3CCCCCCC3)cc2)cc1 [Compound 1] was tested, and the “effect in cell-based assay for the M1 muscarinic receptor” value (M1 muscarinic receptor) was “little affinity”, the activation at 0.03 µM ([1]; Mus musculus, Oligodendrocyte progenitor cell, 0.03 μM, 72 h treatment, read-out: % enhancement of MBP+ oligodendrocyte generation at 0.03 μM concentration) was 20 to 30% and the activation at 0.1 µM ([1]; Mus musculus, Oligodendrocyte progenitor cell, 0.1 μM, 72 h treatment, read-out: % enhancement of MBP+ oligodendrocyte generation at 0.1 μM concentration) was over 40%. For the same molecule, the activation at 0.3 µM ([1]; Mus musculus, Oligodendrocyte progenitor cell, 0.3 μM, 72 h treatment, read-out: % enhancement of MBP+ oligodendrocyte generation at 0.3 μM concentration) was over 40%, the activation at 1 µM ([1]; Mus musculus, Oligodendrocyte progenitor cell, 1 μM, 72 h treatment, read-out: % enhancement of MBP+ oligodendrocyte generation at 1 μM concentration) was over 40% and the “enhancement of oligodendrocyte formation (in words)” value ([1]; OPC-5, FIGS. 2a-2c) was “near maximal effects observed at 110 nM; also recorded: near maximal effects on oligodendrocyte formation at 110 nM”. The “effect in cell-based assay for the estrogen receptor (estrogen dependent growth of T47D cells)” value [2] was “little affinity”.
